Data: patent EP1101492A1, “NOVEL REMEDIES FOR ALLERGIC DISEASES” (FUJI YAKUHIN KOGYO KABUSHIKI KAISHA, priority 1998, dated 2000)
Where “and” joins values, the source holds several entries; their conditions need not be identical. Identical values can stand only once. Like-named read-outs stand apart in the source and are kept apart here.

Legend:
[1] = tested on: peripheral blood mononuclear cells (PBMC); experiment: Antibody (IgG, IgM) production by SAC/IL-2-stimulated peripheral blood mononuclear cells; assay type: cell-based; details: Homo sapiens, 144 h, 6 days incubation; for inhibition at 0.1 µM: final concentration 0.1 µM; for inhibition at 1 µM: final concentration 1 µM; for inhibition at 10 µM: final concentration 10 µM
Description: Heparinized peripheral blood derived from a healthy person was diluted 2-fold with phosphate buffered saline (PBS) and applied to density-gradient centrifugation using Ficoll-Paque (Pharmacia Biotech) to give peripheral blood mononuclear cells (PBMC). After isolation, PBMC was rinsed with PBS, and suspended in RPMI-1640 medium (K.K. Nikken Seibutsu Igaku Kenkyujo) containing 10% heat-inactivated fetal calf serum (1 × 10^6 cells/mL), followed by addition of 0.05% Staphylococcus aureus Cowan-I (SAC, CALBIOCHEM) and 10 units/mL interleukin-2 (IL-2, Genzyme) for stimulation, as well as by simultaneous addition of Compound No. 130 (final concentration: 0.1, 1 and 10 µM). The mixtures were incubated on a 96-well microtest plate at 37°C for 6 days in an atmosphere of 95% air and 5% CO2. After incubation, supernatants were collected and quantitatively measured for IgG and IgM levels by an enzyme immunoassay (a sandwich immunoassay method using two antibodies).
IgG assay: A preparation containing 40 µg/mL anti-human IgG antibody (F(ab')2, Cappel) in 50 mM sodium carbonate-sodium bicarbonate buffer (pH 9.6) was added to each well of a 96-well microtest plate (Nunc) at a rate of 100 µL/well. The plates were allowed to stand overnight at 4°C, and then rinsed 3 times with PBS containing 0.05% Tween 20. A 4-fold dilution of BlockAce (Snow Brand Milk Products Co., Ltd.) in PBS was added to the 96-well microtest plates (300 µL/well) which were then allowed to stand overnight at 4°C, followed by rinsing similarly. Next, a culture supernatant was serially diluted with a 4-fold dilution of BlockAce in PBS and a series of dilutions were added at a rate of 100 µL/well to the 96-well microtest plates which were then allowed to stand at 25°C for 1 hour, followed by rinsing similarly. Thereafter, a 2500-fold dilution of peroxidase-labeled mouse anti-human IgG antibody (Zymed) was added at a rate of 100 µL/well to the 96-well microtest plates which were then allowed to stand at 25°C for 1 hour, followed by rinsing similarly. A coloring kit for peroxidase (Sumitomo Bakelite) was added at a rate of 100 µL/well to each well which was subjected to an enzyme reaction for 15 to 30 minutes at room temperature, followed by addition of 1 N hydrochloric acid at a rate of 100 µL/well. The resultant colored product was measured for an optical density (OD) at 450 nm for a test wavelength and at 650 nm for a reference wavelength in a microplate reader. IgG levels are calculated using a calibration curve of a standard IgG.
IgM assay: The procedures for the IgG assay as aforementioned were repeated except that the anti-human IgG antibody (F(ab')2) was replaced to anti-human IgM antibody (F(ab')2, Cappel) and the peroxidase-labeled mouse anti-human IgG antibody also to peroxidase-labeled mouse anti-human IgM antibody (Zymed; 2,000-fold dilution). IgM levels are obtained in the same manner as for the IgG assay.

NC/Jic mice = experiment: Spontaneously manifested allergic dermatitis in NC/Jic mice (ointment); assay type: in vivo
Description: Compound No. 130 was well blended with an equivalent mixture of polyethylene glycol 400 and polyethylene glycol 4000 to give an approximately homogeneous product. Thus, an ointment containing the test compound at a rate of 0.1% was prepared. For control groups, an ointment base alone was employed.
Male NC/Jic mice (body weight, 24.1 to 31.9 g; age, 12 to 24 weeks old; supplier, Clea Japan, Inc.) were checked for their health after purchase. Immediately after the health check, the mice were housed under conventional conditions until dermatitis occurred. Mouse heads surrounding auricle portions were observed by eye once daily during the preparatory housing and, after a start in painting with ointments, once daily prior to painting. The severity of spontaneous dermatitis was scored according to a pre-assigned sore table (Table 8) for the observation of dermatitis. Animals seriatim used in the experiment were selected from those showing signs of dermatitis with score 1 or 2 for 3 consecutive days or longer.
The ointment was warmed to about 37°C prior to administration, and open-painted onto diseased sites at 100 mg/dosage/day. Seven weeks were set as a drug application period.

[2] = read-out: IgG production of PBMC, percent inhibition
[3] = read-out: IgM production of PBMC, percent inhibition

In the case of `CNC(=O)[C@H](Cc1ccc(NC(=N)N)cc1)NC(=O)[C@H](CC(C)C)C(CCCc1ccccc1)C(=O)NO` (single isomer, unassigned) [Compound No. 130, N-[4-(N-Hydroxyamino)-2(R)-isobutyl-3(R or S)-(3-phenyltrimethylene)succinyl)-L-4'-guanidophenylalanine-N-methylamide 1 acetate], the inhibition at 0.1 µM [1, 2] is reported as 84.5%, the inhibition at 0.1 µM [1, 3] is reported as 32.9% and the inhibition at 1 µM [1, 2] is reported as 96.1%. For the same compound, the inhibition at 1 µM [1, 3] was 68.1%, the inhibition at 10 µM [1, 2] was 96% and the inhibition at 10 µM [1, 3] was 63.4%. For the same compound, the “Dermatitis Score (Average ± S. D.*)” value (NC/Jic mice; 0.1 % ointment, 100 mg/dosage/day for seven weeks, score (0-4) on Day 49, 3 animals, ointment base 3.7 ± 0.6) was 2.3 ± 1.5, the “scratching actions (individual animals)” value (NC/Jic mice; 0.1% ointment, counted for 30 minutes before painting, Days 47 to 48, ointment base 126, 138, 206) was 19 scratching actions and 81 scratching actions and 177 scratching actions and the “scratching actions (average)” value (NC/Jic mice; 0.1% ointment, counted for 30 minutes before painting, Days 47 to 48, ointment base average 157) was 92 scratching actions.
